Data taken from patent US20190226949A1, “IRIDIUM COMPLEXES FOR CELLULAR IMAGING” (UNIVERSITY OF SOUTH AUSTRALIA, priority 2016, published 2019).
Several values for one entry are separate records, joined by “and”; a condition that tells them apart may be missing. Equal values may be shown once.

Legend:
[1] = test system: H9c2 rat cardiomyoblast cells; test: Staining and co-staining of live H9c2 cells, confocal and two-photon microscopy; format: cell-based; settings: for cellular localisation (co-staining): live H9c2, 20 μM, 30 minutes; for emission profile from cells: live H9c2, one-photon or two-photon excitation
Protocol: Live H9c2 rat cardiomyoblasts were incubated with the iridium complexes for 30 minutes. Complexes were made to a final concentration of 20 μM in the cell culture medium with DMSO concentration <0.2%. Under these conditions, the luminescence from the iridium complexes within the cells was detected via confocal microscopy under single-photon excitation (403 nm) or two-photon excitation (810-840 nm).
To determine the localisation of the iridium complexes, co-staining experiments were carried out with the use of ER-Tracker™ Red (endoplasmic reticulum), LysoTracker® Red DND-99 (acidic compartments), MitoTracker® Red (mitochondria), BODIPY® 500/510 C1, C12(fatty acid) or β-BODIPY® FL HPC (phospholipids). […] This difference was also in agreement with the trend of the quantum yield data illustrated before and detection of internalised complex by ICP-MS.
H9c2 rat cardiomyoblast cell line was a kind gift from Professor Janna Morrison (University of South Australia). The H9c2 cells were maintained in high-glucose (4500 mg/L) DMEM medium (Sigma-Aldrich, USA) containing 10% fetal bovine serum (FBS; In Vitro Technologies, USA) and 2 mM L-glutamine (Sigma-Aldrich, USA) at 37° C. and 5% CO2. The H9c2 cells were cultured in […] flasks, and cells (1×10^6 cells/mL) that had been passaged, from two up to five times were used for experiments. For live cell imaging and MTS assay, the H9c2 cells (1×10^5 cells/mL) were cultured overnight in either ibidi μ-Slide 8 wells in a final volume of 250 μL or 96-well microtiter plate in a final volume of 200 μL in absence of Ir-based molecular probes.
The H9c2 cells were incubated with 20 μM of Ir-based molecular probes for 30 minutes in FBS-free media (300 μL) at 37° C. and 5% CO2. These cells were washed twice with phosphate buffered saline (PBS) and once with FBS-free media, and then co-stained with either ER-Tracker™ Red (BODIPY® TR Glibenclamide), LysoTracker® Red DND-99, MitoTracker® Red CMXRos (1H,5H,11H,15H-Xantheno[2,3,4-ij:5,6,7-i′j′]diquinolizin-18-ium, 9-[4-(chloromethyl)phenyl]-2,3,6,7,12,13,16,17-octahydro-, chloride), β-BODIPY® FL C5-HPC (2-(4,4-Difluoro-5,7-Dimethyl-4-Bora-3a,4a-Diaza-s-Indacene-3-Pentanoyl)-1-Hexadecanoyl-sn-Glycero-3-Phosphocholine) or BODIPY® 500/510 C1, C12 (4,4-Difluoro-5-Methyl-4-Bora-3a,4a-Diaza-s-Indacene-3-Dodecanoic Acid), which were obtained from Life Technologies Australia Pty Ltd, Australia. Cell biology analysis was carried out with a minimum of two experimental groups. Imaging analysis was performed using a Nikon A1+ confocal microscope equipped with 403 nm, 488 nm, 561 nm and 640 nm solid-state lasers (Nikon, Japan) and OKOLab Microscope Incubator (Okolab USA Inc., USA). The final preparation of the images was conducted with Adobe Photoshop CC (Adobe Systems Inc., USA).
The H9c2 cells were incubated with 20 μM of Ir-based molecular probes for 30 minutes in FBS-free media (300 μL) at 37° C. and 5% CO2. These cells then were washed with phosphate buffered saline (PBS) and imaged using Zeiss LSM710 META NLO inverted microscope supplemented with a two-photon Mai-Tai®, tunable Ti:Sapphire femtosecond pulse laser (710-920 nm, Spectra-Physics). Fluorescence of Ir-based molecular probes was detected using the following settings: two-photon excitation wavelength 830 nm, beam splitter MBS 690+, emission interval 520-650 nm. The H9c2 cells were exposed to two-photon illumination between 810-840 nm. A continuum of lambda stack images was captured across the emission spectrum 416-728 nm. The images were acquired using a Plan-APOCHROMAT 63X/NA1.4 oil immersion objective. The final preparation of the images was conducted with Adobe Photoshop CC (Adobe Systems Inc., USA).

[2] = Photophysical measurements (absorption, emission, lifetime, quantum yield) in diluted solutions; format: physicochemical; settings: for Emission λem / τaer, excited state lifetime (relative weight in parentheses) / τdeaer, excited state lifetime (relative weight in parentheses): 298K; for Φaer, quantum yield / Φdeaer, quantum yield: versus Ru(bpy)3^2+ in water (φr = 0.028); for τdeaer, excited state lifetime (relative weight in parentheses) / Φdeaer, quantum yield: deaerated; for knr: calculated as [(1 − φ)/τ] from deaerated solutions; for kr: calculated as [φ/τ] from deaerated solutions; for Φ, quantum yield: versus Ru(bpy)3^2+ in water; for red-shift of emission from ethyl laurate to dichloromethane: ethyl laurate vs dichloromethane
Text: A summary of the photophysical data for the complexes as diluted solutions (10^−5 M) in dichloromethane, water, PBS, lysosomal fluid solution, and ethyl laurate is reported in Table 1. All the listed aqueous media also contain 0.1% DMSO to favour the solubilisation of the complexes. The various solvents have been chosen to identify potential modulations on the photophysical behaviour of the iridium complexes in diverse cellular environments such as cytoplasm, endosome/lysosomes acidic organelles, or lipid-rich compartments like membranes, endoplasmic reticulum, and lipid droplets. In general, the photophysical characteristics were measured in aerated solutions to take into account the presence of oxygen in live cells. On the other hand, dichloromethane solutions were compared as aerated and degassed to confirm oxygen sensitivity and triplet character of the excited states of the complexes.
Absorption spectra were recorded at room temperature using a Cary 4000 UV/Vis spectrometer. Uncorrected steady state emission and excitation spectra were recorded on an Edinburgh FLSP980-S2S2-stm spectrometer equipped with: i) a temperature-monitored cuvette holder; ii) 450 W Xenon arc lamp; iii) double excitation and emission monochromators; iv) a Peltier cooled Hamamatsu R928P photomultiplier tube (spectral range 200-870 nm). Emission and excitation spectra were corrected for source intensity (lamp and grating) and emission spectral response (detector and grating) by a calibration curve supplied with the instrument. According to the approach described by Demas and Crosby, luminescence quantum yields (Φem) were measured in optically dilute solutions (O.D.<0.1 at excitation wavelength) obtained from absorption spectra on a wavelength scale [nm] and compared to the reference emitter by the following equation: […]
where A is the absorbance at the excitation wavelength (λ), I is the intensity of the excitation light at the excitation wavelength (λ), n is the refractive index of the solvent, D is the integrated intensity of the luminescence and Φ is the quantum yield. The subscripts r and x refer to the reference and the sample, respectively. The quantum yield determinations were performed at identical excitation wavelength for the sample and the reference, therefore cancelling the I(λr)/I(λx) term in the equation. The quantum yields of complexes were measured against Rubipy in water (Φr=0.028). Emission lifetimes (z) were determined with the time correlated single photon counting technique (TCSPC) with the same Edinburgh FLSP980-S2S2-stm spectrometer using either a pulsed picosecond LED (EPLED/EPL 377 nm, FHWM<800 ps) or a microsecond flashlamp. The goodness of fit was assessed by minimising the reduced χ^2 function and by visual inspection of the weighted residuals. The solvents used for the preparation of the solutions for the photophysical investigations were of LR grade and the water was deionised. Degassing of the dichlorometane solutions was performed using the freeze-pump-thaw method. Experimental uncertainties are estimated to be ±8% for lifetime determinations, ±20% for quantum yields, ±2 nm and ±5 nm for absorption and emission peaks, respectively.

[3] = Lipophilicity by shake-flask method (7.4-buffered PBS / n-octanol); format: physicochemical; settings: pH 7.4; 7.4-buffered PBS solution and n-octanol; read-out: logD7.4, distribution coefficient
Protocol: The lipophilicity of the iridium complexes was measured by the shake-flask method using 7.4-buffered PBS and n-octanol as solvents (Table 2). The values range between 1.49 and 2.68 are typical for cyclometalated iridium complexes that have not been bioconjugated. […] In general, neutral complexes have log D7.4 values above 2.00 and there is an increased in lipophilicity of extending the tetrazolato ligand with the addition of a phenyl spacer in [Ir(ppy)2(TzPyPhCN)], or by extending the conjugation on passing from pyridine to quinoline or isoquinoline for [Ir(ppy)2(TzQn)] and [Ir(ppy)2(TziQn)]. Methylation in all cases reduces lipophilicity to log D7.4 values […], with the same trend within the family of methylated complexes as previously observed for the neutral ones.

Compound	cellular localisation (co-staining) [1]	emission profile from cells [1]	Absorption λabs [nm] (10^4ε [M^−1cm^−1]) ([2]; DCM, 10^−5 M)	Emission λem ([2]; DCM, 10^−5 M) [nm]	τaer, excited state lifetime (relative weight in parentheses) ([2]; DCM, aerated) [ns]	Φaer, quantum yield ([2]; DCM, aerated)	τdeaer, excited state lifetime (relative weight in parentheses) ([2]; DCM) [ns]	Φdeaer, quantum yield ([2]; DCM)	knr ([2]; DCM)	kr ([2]; DCM)	Emission λem ([2]; H2O with 0.1% DMSO, aerated) [nm]	Φ, quantum yield ([2]; H2O with 0.1% DMSO, aerated)	red-shift of emission on passing from a PBS to a lysosomal fluid solution ([2]; PBS vs lysosomal fluid solution) [nm]	red-shift of emission from ethyl laurate to dichloromethane [2]	logD [3]	Absorption λabs [nm] (10^4ε [M^−1cm^−1]) ([2]; H2O with 0.1% DMSO, 10^−5 M)
C[n+]1nc2[n](n1)[Ir]13([c]4ccccc4-c4cccc[n+]41)([c]1ccccc1-c1cccc[n+]13)[n+]1cc(-c3ccc(C#N)cc3)ccc1-2 [[Ir(ppy)2(MeTzPyPhCN)]^+]	staining pattern consistent with mitochondrial localisation	blue-shifted and almost superimposable bands between these cationic complexes and their neutral analogues	267 (3.39) nm (10^4ε [M^−1cm^−1]) and 290 (3.14) nm (10^4ε [M^−1cm^−1]) and 378 (0.40) nm (10^4ε [M^−1cm^−1])	600	184	0.057	434	0.093	2.090 10^6s^−1	2.143 10^5s^−1	605	0.005	22	almost no shift is observed	1.87 ± 0.08	
C[n+]1nc2[n](n1)[Ir]13([c]4ccccc4-c4cccc[n+]41)([c]1ccccc1-c1cccc[n+]13)[n+]1c-2ccc2ccccc21 [[Ir(ppy)2(MeTzQn)]^+]	preferential localisation in the endoplasmic reticulum and fatty acids and phospholipids	blue-shifted and almost superimposable bands between these cationic complexes and their neutral analogues		635	218	0.028	546	0.043	1.753 10^6s^−1	0.788 10^5s^−1	630	0.004			1.68 ± 0.05	251 (8.30) nm (10^4ε [M^−1cm^−1]) and 307 (2.52) nm (10^4ε [M^−1cm^−1]) and 364 (1.09) nm (10^4ε [M^−1cm^−1])
C[n+]1nc2[n](n1)[Ir]13([c]4ccccc4-c4cccc[n+]41)([c]1ccccc1-c1cccc[n+]13)[n+]1ccc3ccccc3c1-2 [[Ir(ppy)2(MeTziQn)]^+]	preferential localisation in the endoplasmic reticulum and fatty acids and phospholipids	red-shifted consistently with the photophysical data	253 (6.96) nm (10^4ε [M^−1cm^−1]) and 303 (2.45) nm (10^4ε [M^−1cm^−1]) and 371 (1.24) nm (10^4ε [M^−1cm^−1])	640	208	0.049	485	0.063	1.932 10^6s^−1	1.299 10^5s^−1	660	0.004		almost no shift is observed	1.49 ± 0.06	251 (6.64) nm (10^4ε [M^−1cm^−1]) and 291 (2.60) nm (10^4ε [M^−1cm^−1]) and 355 (1.36) nm (10^4ε [M^−1cm^−1])
